What was measured:
fibrosarcoma cell line = assay: Ferroptosis screening model, MTT cell viability assay with Erastin induction; type: cell-based
Method: In this example, in order to study the inhibitor of ferroptosis, a screening model for ferroptosis was constructed in house, and the details are as follows:
The screening model for ferroptosis mainly used the MTT cell viability assay. First, the fibrosarcoma cell line was cultured in a dish, and the cells in the logarithmic growth phase were seeded in a 96-well plate in specific numbers (3000-10000 cells/well), 100 μL per well, and then cultured in an incubator at 37° C. and 5% CO2 to allow the cells to adhere. After 24 h, 100 μL of compounds at certain concentrations prepared in the indicated medium and the ferroptosis inducer Erastin (final concentration of 10 μM) were added, and wells in triplicate were set up for each compound to ensure the accuracy of the results. A negative control group, positive control group (5 μM of ferrostain-1), blank control group and solvent control group were also set. After dosing, cells were placed in the incubator and cultured for 72 h. On the day of the MTT test, MTT test solution (5 mg/mL MTT solution dissolved in physiological saline, stored at 4° C. in the dark) was pre-prepared, and 20 μL was added to each well. Cells were placed in the incubator and cultured for another 2-4 h. Then, 50 μL of 20% SDS solution (dissolved in MiliiQ water, added with 1% concentrated hydrochloric acid) was added to each well, and cells were placed in the incubator overnight. The next day, the absorbance value at 570 nm was detected with a microplate reader to calculate the inhibition rate of the drug on ferroptosis. Generally, the absorbance value of the control group should be between 0.8-1.2 as a normal value.
The curve of inhibition rate change was fitted using Graph Pad Prism 5 software to obtain EC50.

[1] = system: middle cerebral artery occlusion (MCAO) cerebral stroke model in rat; assay: Rat MCAO cerebral stroke model, single administration, TTC staining; type: in vivo, SD rats; details: for Infarct area weight: tail vein injection within 10 min of reperfusion; for Infarct area weight / Infarct size: 24 h after reperfusion; for Inhibition rate of cerebral infarction / Infarct size: tail vein injection; for Inhibition rate of cerebral infarction: calculated from infarct size against model control; for Infarct size: infarct tissue weight as percentage of whole brain
Method: Through the middle cerebral artery occlusion (MCAO) cerebral stroke model (also known as cerebral ischemia model) in rat, the therapeutic effects of the compounds of the present disclosure at different doses and single administration on ischemic cerebral stroke in SD rats were studied. […] The ischemic rats were placed at room temperature to keep their body temperature at 37° C. After 90 min, the suture was pulled out for reperfusion. […] After 24 h of reperfusion, the animals were scored by NSS to evaluate neurological function, and then the animals were dissected to remove the brain for TTC staining. By determining the size of cerebral infarction and calculating the inhibition rate, the therapeutic effects of the test compounds on ischemic cerebral stroke in rats were evaluated comprehensively. […] The percentage of infarct tissue weight in the whole brain was used as the infarct size (%), and the inhibition rate (%) of each drug treatment group was calculated based on the infarct size. The inhibition rate was calculated with the following formula: [formula] 2.

human hERG ion channel = molecular target: T1, human hERG ion channel (Homo sapiens, UniProt Q12809); assay: hERG whole-cell patch clamp in HEK293 cells; type: cell-based; details: for IC50: hERG tail current, HEK293 cells, 0.3-30 μM, room temperature
T1 construct: expressed in transfected cells; host or cells: HEK293 cells stably expressing hERG
Method: Effect of Compounds of the Present Disclosure on Human hERG Ion Channel Expressed in HEK293 Cells at Steady State Determined by Patch Clamp
The hERG ion channel steady-state expressing HEK293 cells were transferred to a perfusion tank and perfused with extracellular fluid at room temperature. Each cell was used as a control. All test compounds were dissolved by shaking with dimethyl sulfoxide and prepared as serial concentrations of 0.3 μM, 1 μM, 3 μM, 10 μM and 30 μM. The test compounds were perfused using a perfusion system utilizing their own gravity. At least two cells were tested for each concentration. After the current was stable (or 5 min), the current magnitude changes before and after the compound was used were compared to calculate the blocking effect of the compound. Test electrodes were pulled with PC-10. Whole-cell patch clamp was used to record, with noise filtered at one-fifth of the sampling frequency. […] This procedure was repeated every 15 seconds. hERG tail currents were pure hERG currents. After the current was stabilized, the administration was performed by continuous extracellular perfusion from low concentration to high concentration. Starting from a low concentration, perfusion was continued until the drug effect was stable, and then perfusion of the next concentration was performed.
Stimulus delivery and signal acquisition were performed by the Patch Master software. The signal was amplified with a patch clamp amplifier with a filtering of 10 KHz. Fit Master, EXCEL, Graph Pad Prism and SPSS 21.0 were used for further data analysis and curve fitting. In data processing, when judging the blocking effect on hERG the peak value of the tail current and its baseline were corrected. The effect of each compound at different concentrations was expressed by the inhibition rate of the tail current. Inhibition rate %=100×(peak value of tail current before administration-peak value of tail current after administration)/peak value of tail current before administration
IC50 values were fitted by the Hill equation: […]

[2] = Hemolysis reaction (statement only, no method)
[3] = 72 h, inhibition of ferroptosis induced by Erastin 10 μM, MTT; average of three tests
[4] = inhibition of ferroptosis induced by Erastin 10 μM, 72 h, MTT; average of three tests
[5] = summary of Table 1, compared with positive drug ferrostain-1

T1 sequence (Q12809 whole entry): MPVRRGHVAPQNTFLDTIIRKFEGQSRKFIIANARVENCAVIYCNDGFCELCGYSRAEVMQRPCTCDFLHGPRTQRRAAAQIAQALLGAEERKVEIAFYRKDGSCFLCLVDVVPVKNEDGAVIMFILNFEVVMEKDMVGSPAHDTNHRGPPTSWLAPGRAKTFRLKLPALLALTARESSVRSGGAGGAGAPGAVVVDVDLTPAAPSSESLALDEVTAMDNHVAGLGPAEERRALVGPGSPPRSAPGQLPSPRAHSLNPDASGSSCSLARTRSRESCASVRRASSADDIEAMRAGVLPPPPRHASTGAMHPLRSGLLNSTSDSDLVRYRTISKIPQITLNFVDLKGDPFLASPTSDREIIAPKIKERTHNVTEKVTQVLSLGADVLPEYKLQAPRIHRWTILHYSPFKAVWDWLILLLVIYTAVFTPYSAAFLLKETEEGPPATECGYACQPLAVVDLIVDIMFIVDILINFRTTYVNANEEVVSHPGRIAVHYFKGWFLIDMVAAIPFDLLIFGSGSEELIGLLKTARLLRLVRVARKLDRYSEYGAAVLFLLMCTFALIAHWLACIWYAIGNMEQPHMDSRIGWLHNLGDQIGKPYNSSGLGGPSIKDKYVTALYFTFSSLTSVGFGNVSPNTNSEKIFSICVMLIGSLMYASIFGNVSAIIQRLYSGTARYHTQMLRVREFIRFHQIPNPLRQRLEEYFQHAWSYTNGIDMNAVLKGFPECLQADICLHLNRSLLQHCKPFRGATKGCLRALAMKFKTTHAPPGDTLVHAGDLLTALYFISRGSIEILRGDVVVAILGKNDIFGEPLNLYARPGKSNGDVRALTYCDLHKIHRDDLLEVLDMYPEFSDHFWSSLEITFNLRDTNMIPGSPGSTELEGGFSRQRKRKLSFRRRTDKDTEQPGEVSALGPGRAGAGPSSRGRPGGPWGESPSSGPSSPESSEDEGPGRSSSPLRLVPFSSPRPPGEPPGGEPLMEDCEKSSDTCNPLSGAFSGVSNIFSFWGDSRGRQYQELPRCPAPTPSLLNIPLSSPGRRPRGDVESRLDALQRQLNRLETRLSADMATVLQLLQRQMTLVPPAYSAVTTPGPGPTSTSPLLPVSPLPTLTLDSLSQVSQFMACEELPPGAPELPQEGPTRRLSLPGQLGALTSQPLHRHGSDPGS

C=C(c1ccc2c(c1)Nc1ccccc1S2)c1ccc2cc(C(=O)NCCN3CCOCC3)[nH]c2c1 [Compound 9] showed an EC50 (fibrosarcoma cell line; [3]) of 12 nM.
With C=C(c1ccc2c(c1)Nc1ccccc1S2)c1cnc2c(cnn2CCOC)c1 [Compound 27] the EC50 (fibrosarcoma cell line; [3]) was 73 nM.
For C=C(c1ccc2c(c1)Nc1ccccc1S2)c1cnc2c(cnn2C2CCOC2)c1 (stereo not drawn) [Compound 19], the EC50 (fibrosarcoma cell line; [4]) was 13 nM.
Work on C=C(c1ccc2c(c1)Nc1ccccc1S2)c1cnc2[nH]ncc2c1 [Compound 31] yielded an EC50 (fibrosarcoma cell line; [3]) of 11 nM.
C=C(c1ccc2c(c1)Nc1ccccc1S2)c1cn2cc(C(=O)NC3CCOCC3)nc2cn1 [Compound 23] showed an EC50 (fibrosarcoma cell line; [3]) of 67 nM.
Molecule C=C(c1ccc2c(c1)CCN2C(C)=O)c1ccc2c(c1)Nc1ccccc1S2 [Compound 16] has an EC50 (fibrosarcoma cell line; [3]) of 10 nM.
In the case of C=C(c1ccc2c(c1)Nc1ccccc1S2)c1cnc2nc(C(=O)NCCN(C)C)cn2c1 [Compound 22], the EC50 (fibrosarcoma cell line; [3]) is reported as 14 nM.
Work on C=C(c1ccc2c(c1)Nc1ccccc1S2)c1cnc2c(cnn2CC2CCN(C(=O)OC(C)(C)C)CC2)c1 [Compound 4] yielded an EC50 (fibrosarcoma cell line; [3]) of 76 nM.
With C=C(c1ccc2c(c1)Nc1ccccc1S2)c1cn2cc(C(=O)N[C@H](C)c3cccc4ccccc34)nc2cn1 [Compound 25] the EC50 (fibrosarcoma cell line; [3]) was 55 nM.
With C=C(c1ccc2c(c1)Nc1ccccc1S2)c1cn2ccnc2c(N2CCOCC2)n1 [Compound 7] the EC50 (fibrosarcoma cell line; [3]) was 24 nM.
In the case of CC(c1ccc(N2CCN(C)CC2)cc1)c1ccc2c(c1)Nc1ccccc1S2 (stereo not drawn) [Comparative Compound 1, reference compound], the Infarct area weight ([1]; 2.5 mg/kg) is reported as 0.14 ± 0.07 g, the “Inhibition rate of cerebral infarction” value ([1]; 2.5 mg/kg) is reported as 19.0% and the Infarct area weight ([1]; 5 mg/kg) is reported as 0.11 ± 0.05 g. The “Inhibition rate of cerebral infarction” value ([1]; 5 mg/kg) was 33.6%.
C=C(c1cnc2c(c1)CCN2)c1ccc2c(c1)Nc1ccccc1S2 [Compound 17] showed an EC50 (fibrosarcoma cell line; [3]) of 89 nM.
With C=C(c1ccc2c(c1)Nc1ccccc1S2)c1ccc2c(C(=O)NCCN3CCOCC3)c[nH]c2c1 [Compound 6] the EC50 (fibrosarcoma cell line; [3]) was 15 nM.
In the case of C=C(c1ccc2c(c1)Nc1ccccc1S2)c1cnc2c(cnn2C2CN(C(=O)OC(C)(C)C)C2)c1 [Compound 8], the EC50 (fibrosarcoma cell line; [4]) is reported as 55 nM.
With CCOC(=O)c1ccc(NC2CCCCC2)c(N)c1 [Ferrostain-1, Ferrostatin-1, reference compound] the EC50 (fibrosarcoma cell line; 72 h) was 60 nM.
With C=C(c1ccc2c(c1)Nc1ccccc1S2)c1ccc2c(c1)SCC(=O)N2 [Compound 11] the EC50 (fibrosarcoma cell line; [3]) was 33 nM.
In the case of C=C(c1ccc2c(c1)Nc1ccccc1S2)c1cnc2c(cnn2CC)c1 [Compound 33], the EC50 (fibrosarcoma cell line; [3]) is reported as 67 nM.
C=C(c1ccc2c(c1)Nc1ccccc1S2)c1ccc2c(c1)OC(F)(F)O2 [Compound 15] gave an EC50 (fibrosarcoma cell line; [3]) of 10 nM.
In the case of C=C(c1ccc2c(c1)Nc1ccccc1S2)c1ccc2c(C=O)c[nH]c2c1 [Compound 10], the EC50 (fibrosarcoma cell line; [3]) is reported as 15 nM.
C=C(c1ccc2c(c1)Nc1ccccc1S2)c1cn2cc(C(=O)N[C@H](C)c3ccccc3)nc2cn1 [Compound 26] showed an EC50 (fibrosarcoma cell line; [3]) of 76 nM.
Molecule C=C(c1ccc2c(c1)Nc1ccccc1S2)c1cnc2c(cnn2C2CCOC2)c1 (stereo not drawn) [Compound 32] has an EC50 (fibrosarcoma cell line; [4]) of 50 nM.
For C=C(c1ccc2c(c1)Nc1ccccc1S2)c1ccc2c(c1)OCCO2 [Compound 13], the EC50 (fibrosarcoma cell line; [3]) was 37 nM.
In the case of C=C(c1ccc2c(c1)Nc1ccccc1S2)c1cnc2c(cnn2C2CCN(C)CC2)c1 [Compound 20], the EC50 (fibrosarcoma cell line; [3]) is reported as 0.2 nM and the “inhibitory effects on ferroptosis (in words)” value (fibrosarcoma cell line; [5]) is reported as “excellent inhibitory effects on ferroptosis, significantly better than the positive drug ferrostain-1”.
In the case of C=C(c1ccc2c(c1)Nc1ccccc1S2)c1cn2cc(C(=O)NCC3CCOCC3)nc2cn1 [Compound 24], the EC50 (fibrosarcoma cell line; [3]) is reported as 56 nM.
For C=C(c1ccc2c(c1)Nc1ccccc1S2)c1cnc2c(cnn2C2CCN(C(=O)OC(C)(C)C)CC2)c1 [Compound 29], the EC50 (fibrosarcoma cell line; [3]) was 29 nM.
In the case of C=C(c1ccc2c(c1)Nc1ccccc1S2)c1ccc2ncccc2c1 [Compound 14], the “effect on the human hERG ion channel (in words)” value (human hERG ion channel; HEK293 cells in a steady state) is reported as “no significant effect”, the IC50 (human hERG ion channel) is reported as over 30000 nM and the “improvement of cardiac safety compared with compound 59 of CN111574474A” value (human hERG ion channel; ratio of hERG IC50 values) is reported as “about 50 times”. The EC50 (fibrosarcoma cell line; [3]) was 6 nM, the “inhibitory effects on ferroptosis (in words)” value (fibrosarcoma cell line; [5]) was “excellent inhibitory effects on ferroptosis, significantly better than the positive drug ferrostain-1” and the Infarct area weight ([1]; 2.5 mg/kg) was 0.15 ± 0.07 g. For the same molecule, the “Inhibition rate of cerebral infarction” value ([1]; 2.5 mg/kg) was 14.0%, the Infarct size ([1]; 2.5 mg/kg) was 12.11 ± 5.69% and the Infarct area weight ([1]; 5 mg/kg) was 0.12 ± 0.05 g. The “Inhibition rate of cerebral infarction” value ([1]; 5 mg/kg) was 29.3%, the Infarct size ([1]; 5 mg/kg) was 9.95 ± 4.69% and the “range of necrosis of brain tissue lesions (in words)” value ([1]; high and low dose administration groups) was “reduce the range of necrosis of brain tissue lesions”. For the same molecule, the “hemolysis reaction (in words)” value [2] was “no hemolysis reaction”.
For C=C(c1ccc2c(c1)Nc1ccccc1S2)c1cnc2c(ccn2C)c1 [Compound 34], the EC50 (fibrosarcoma cell line; [3]) was 42 nM.
For CCCCC1OC(=O)c2ccccc21 (stereo not drawn) [Positive drug, butylphthalide, reference compound], the Infarct area weight ([1]; 5 mg/kg) was 0.18 ± 0.09 g, the “Inhibition rate of cerebral infarction” value ([1]; 5 mg/kg) was 1.1% and the Infarct size ([1]; 5 mg/kg) was 13.93 ± 6.97%.
In the case of C=C(c1ccc2c(c1)Nc1ccccc1S2)c1cnc2c(cnn2CC2CCOCC2)c1 [Compound 2], the EC50 (fibrosarcoma cell line; [3]) is reported as 38 nM.
In the case of C=C(c1ccc2c(c1)Nc1ccccc1S2)c1cnc2c(cnn2C2CN(C(=O)OC(C)(C)C)C2)c1 [Compound 30], the EC50 (fibrosarcoma cell line; [3]) is reported as 92 nM.
C=C(c1ccc2c(c1)Nc1ccccc1S2)c1cnc2c(cnn2C2CCNCC2)c1 [Compound 36] gave an EC50 (fibrosarcoma cell line; [3]) of 16 nM.
Work on C=C(c1ccc(S(=O)(=O)NC2CCN(C)CC2)cc1)c1ccc2c(c1)Nc1ccccc1S2 [Comparative Compound 2, reference compound] yielded an IC50 (human hERG ion channel) of 710 nM.
For C=C(c1ccc2c(c1)Nc1ccccc1S2)c1cnc2sccc2c1 [Compound 35], the EC50 (fibrosarcoma cell line; [3]) was 74 nM.
